Laboratory results as given in patent publication US10440975B2, “Feed additive composition for reducing methane gas produced by ruminant animals” (CJ CHEILJEDANG CORPORATION, priority 2014, dated 2019).

Test system: rumen fluid
Experiment: Rumen simulation continuous culture system (RSCC): methane production, pH, digestibility
Assay type: cell-based
Details: vs control group
Description: 0.12 mL of a micromineral solution was added to 250 mL of distilled water in an 2 L of Erlenmeyer flask and stirred. Another 250 mL of distilled water was added, and then stirred for 20 minutes. Then, 250 mL of an in vitro buffer solution was added and stirred for 10 minutes. Then, 250 mL of a macromineral solution was added and stirred for 15 minutes. Then, 1.25 mL of a resazurin solution was added to the mixture and stirred. Then, the flask was sealed with aluminum foil and heated while maintaining an anaerobic condition by bubbling CO2 gas in a Hungate anaerobic culture tube. When the solution started boiling, the solution was heated for 10 more minutes and then cooled down. 50 mL of a reduction solution was added to the cooled solution to obtain a buffer.
A sampled rumen fluid was first filtered through eight-layer gauze and then through glass wool. The filtered rumen fluid was maintained in an anaerobic condition by CO2 bubbling. While maintaining the anaerobic condition by CO2 bubbling, the buffer solution prepared in 1) above was mixed with the rumen fluid (250 mL of the rumen fluid, 600 mL of the buffer solution).
10 g of a substrate was added to a fermenter. The buffer solution prepared in 1) was added into a buffer bag while maintaining the anaerobic condition. A Tedlar bag filled with CO2 gas was connected to the buffer bag, and a tube connected to the buffer bag was connected to a buffer inlet port of the fermenter lid. Then a tube connected to a gas collecting bag was connected to a gas collecting port of the fermenter lid (a tube for gas was used). A pH probe and a temperature probe were placed deep enough to reach the culture medium while not touching the impellers. In the meantime, a feed inlet tube was placed deep enough to reach the culture medium through the feeding port of the fermenter lid. The fermenter lid was then connected to the fermenter and an anaerobic condition inside the fermenter was maintained by using vacuum grease and Teflon tape. CO2 gas was introduced into the fermenter through the gas collecting port for about 10 minutes (making the inside of the fermenter anaerobic, continuously introducing CO2 gas until the initiation of cultivation). All joint connections were sealed with vacuum grease and Teflon tape. Once all devices were installed, a peristaltic pump was activated and the buffer solution was introduced into the fermenter. The anaerobic culture medium was introduced into the fermenter until it overflowed, and then the CO2 gas introduction into the fermenter was discontinued and all inlet ports were sealed. The fermenter was then connected to a circulator, and cultivation started at 39° C. with a stirring speed between 99 rpm and 102 rpm. The pH of the culture medium of the fermenter was between 6.8 and 7.1, and a temperature was maintained at between 39° C. and 40° C. A turnover rate of the culture medium was stabilized at 0.042 h^−1 while a turnover rate of the substrate was stabilized at 0.017 h^−1.
Below is an experiment on reduction of methane production conducted in accordance with the above operation method using the RSCC system of 3) of Preparation Example. A feed additive for reducing methane was added with the substrate when the substrate was added.
The RSCC system was operated for five days of adjustment, and then total gas production, methane production, and pH values of the control group were measured for three days. After the measurements of the control group were completed, DADS was added at ratios of 0.1 wt %, 0.2 wt %, and 0.4 wt % per 10 g of a substrate, and then total gas production, methane production, and pH values were measured at the same time for another three days. The methane reduction rate was measured after having an adjustment period with a newly sampled rumen fluid every time one additive examines.

[1] = additive 0.1 wt % per 10 g of substrate
[2] = additive 0.5 wt % per 10 g of substrate

Molecule	Methane Reduction (%) [1] [%]	Methane Reduction (%) (additive 0.2 wt % per 10 g of substrate)	Methane Reduction (%) [2] [%]	Methane Reduction (%) (additive 0.35 wt % per 10 g of substrate)	Methane Reduction (%) (additive 1.0 wt % per 10 g of substrate)
COc1ccc2cc3[n+](cc2c1OC)CCc1cc2c(cc1-3)OCO2 [Berberine, 5,6-dihydro-9,10-dimethoxybenzo[g]-1,3-benzodioxolo[5,6-a]quinolizinium]	6.7	12.4	45.5	–	–
C=CCSSCC=C [DADS, 4,5-dithia-1,7-octadiene diallyldisulfide]	30.5	–	–	–	–
O=[N+]([O-])O [Nitrate]	–	–	31.0	14.0	8.1
((2R)-2-amino-3-[(S)-prop-2-enylsulfinyl] propanoic acid [Alliin]	–	–	21.9	–	–
